The record followed here is paper PMC2784364, “VX-166: a novel potent small molecule caspase inhibitor as a potential therapy for sepsis” (Critical Care, 2009).

Experiment [1] in a line: CLP rat, plasma endotoxin by LAL kit. It is filed as in vivo. The conditions noted are these: 20 hours, 25 mg/ml pump, n = 10, P < 0.05. The procedure:
CLP studies were performed in accordance with the National Institutes of Health guidelines for the use of experimental animals and were approved by the Institutional Animal Care and Use Committee of the Feinstein Institute for Medical Research. Adult male Sprague-Dawley rats (weighing 275 to 325 g, Charles River Laboratories, Wilmington, MA, USA) were fasted overnight then anaesthetised with isoflurane. The caecum was exposed via a 2 cm midline incision. It was ligated just distal to the ileocaecal valve, then punctured twice with an 18-gauge needle and gently squeezed to release a small amount of faecal material to ensure patency of the perforation sites before the abdominal incision was closed. Sham-operated rats underwent the same procedure with the exception that the caecum was neither ligated nor punctured. […]
Blood samples were centrifuged at 1500 g for 15 minutes at 4°C, the plasma was removed and stored at -80°C until analysis. Plasma IL-1β levels were determined by ELISA (R&D Systems Inc., Minneapolis, MN, USA) following the manufacturer's instructions. Plasma endotoxin levels were determined using a Limulus amebocyte lysate (LAL) kit (Associates of Cape Cod, Inc., East Falmouth, MA, USA) according to the manufacturer's instruction. […] The optical density was determined at 405 nm using a spectrophotometer. The levels of endotoxin were then calculated and expressed as EU/ml.

Experiment [2] concerns IL-1β release from peripheral blood mononuclear cells. In words: IL-1β release from LPS-treated PBMC. The experiment is classed as cell-based. The procedure:
Peripheral blood mononuclear cells (PBMC) from healthy donors were isolated by Ficoll-Paque gradient centrifugation from buffy coats obtained from the National Blood Transfusion Service (Bristol, UK). For IL-1β release, 5 × 10^5 cells/ml were then stimulated with 50 ng/ml lipopolysaccharide (LPS) from Escherichia coli (Sigma-Aldrich Ltd., Poole, UK) in the presence or absence of VX-166 and incubated for 18 hours. Secretion of IL-1β into the supernatant was determined by ELISA (R&D Systems, Abingdon, UK) following the manufacturer's instructions. For IL-18 release, 7.5 × 10^5 cells/ml were stimulated with 6.25 × 10^-4% (w/v) Staphylococcus aureus cell suspension (SAC; Sigma-Aldrich Ltd., Poole, UK) in the presence or absence of VX-166 and incubated overnight. The IL-18 content in the supernatants was quantified by ELISA (Caltag-MedSystems Ltd., Buckingham, UK) following the manufacturer's instructions. In both assays PBMC viability was assessed after the 18 hours incubation time using MTS assay (Promega UK Ltd., Southampton, UK) to ensure that the reduction in cytokine release was not caused by a cytotoxic effect of the compound.

The next experiment deals with T1, caspase-9 (Homo sapiens, UniProt P55211).
T1 construct: purchased Europa Bioproducts Ltd. (Cambridge, UK)
As to the kind of experiment: Caspase inhibition assay, second-order inactivation rate. The experiment is classed as biochemical. The conditions noted are these: recombinant caspase-9, 37°C, n = 4; read-out: Second order inactivation rate constant K. The procedure: (§1) Active recombinant caspase-1, -3, -4, -7 and -8 were prepared as described previously. Caspase-2 was purchased from Biomol (Exeter, UK), caspase-6 from BD Biosciences (Oxford, UK), caspase-9 from Europa Bioproducts Ltd. (Cambridge, UK) and caspase-10 from Chemicon International Inc. (Harrow, UK). Cathepsin B and granzyme B were purchased from Merck Biosciences Ltd. (Nottingham, UK). Fluorogenic protease substrates were purchased from Bachem Ltd. (St. Helens, UK). All reactions were carried out at 37°C using a Molecular Devices (Wokingham, UK) Gemini plate-reader at 460 nm (excitation wavelength of 390 nm). Caspase inhibition assays were conducted, with minor modifications, as described by Margolin and colleagues. Irreversible kinetics were analysed by calculations of second-order inactivation rate constants (k) using GraphPad (La Jolla, CA, USA) Prism 4.0 software. A larger number for an inactivation rate constant indicates a greater degree of inactivation. To determine the inhibitory effect on cathepsin B, 4.25 nM of the enzyme were added to 250 μM z-RR-AMC in 10 mM 2-morpholino-ethanesulfonic acid pH 6.0, 1 mM DTT, 1 mM EDTA and 0.03% Brij35 in the presence or absence of VX-166 and the reaction monitored continuously over 15 minutes. Granzyme B was assayed, with minor modifications, as described by Thornberry and colleagues. Additional counterscreening against a panel of 83 additional enzymes, ion channels and receptors was carried out at MDS Pharma Services (Bothell, WA, USA).

The target of a further experiment is T2, caspase-10 (Homo sapiens, UniProt Q92851).
T2 construct: purchased Chemicon International Inc. (Harrow, UK)
The description is as above. It is filed as biochemical. The conditions noted are these: recombinant caspase-10, 37°C, n = 4; read-out: Second order inactivation rate constant K. The procedure:
as §1

Another experiment deals with T3, caspase-6 (Homo sapiens, UniProt P55212).
T3 construct: purchased BD Biosciences (Oxford, UK)
Described as above. It is filed as biochemical. The conditions noted are these: recombinant caspase-6, 37°C, n = 4; read-out: Second order inactivation rate constant K. The procedure:
as §1

The target of the next experiment is T4, caspase-7 (Homo sapiens, UniProt P55210).
T4 construct: Active recombinant caspase-1, -3, -4, -7 and -8 were prepared as described previously; made in house
The description is as above. The experiment is classed as biochemical. The conditions noted are these: recombinant caspase-7, 37°C, n = 4; read-out: Second order inactivation rate constant K. The procedure:
as §1

SMILES strings stand for the structures. Entries after “also recorded” stand apart in the source; their conditions may differ. Read-outs that look alike come from different tables or passages of the source.

The term IC50 denotes the concentration at which inhibition is half-maximal.

T1 sequence (P55211 whole entry): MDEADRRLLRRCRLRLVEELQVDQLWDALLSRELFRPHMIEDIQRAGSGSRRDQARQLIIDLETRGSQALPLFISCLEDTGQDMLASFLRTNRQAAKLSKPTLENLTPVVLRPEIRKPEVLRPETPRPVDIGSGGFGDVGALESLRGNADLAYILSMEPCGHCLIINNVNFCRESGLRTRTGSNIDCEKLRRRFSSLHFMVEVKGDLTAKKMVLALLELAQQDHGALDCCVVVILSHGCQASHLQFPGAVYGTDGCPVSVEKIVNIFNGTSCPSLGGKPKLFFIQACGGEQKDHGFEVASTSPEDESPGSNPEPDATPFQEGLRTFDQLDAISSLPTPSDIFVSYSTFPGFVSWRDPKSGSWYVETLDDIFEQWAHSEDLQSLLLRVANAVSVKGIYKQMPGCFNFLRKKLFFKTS
T2 sequence (Q92851 220-521): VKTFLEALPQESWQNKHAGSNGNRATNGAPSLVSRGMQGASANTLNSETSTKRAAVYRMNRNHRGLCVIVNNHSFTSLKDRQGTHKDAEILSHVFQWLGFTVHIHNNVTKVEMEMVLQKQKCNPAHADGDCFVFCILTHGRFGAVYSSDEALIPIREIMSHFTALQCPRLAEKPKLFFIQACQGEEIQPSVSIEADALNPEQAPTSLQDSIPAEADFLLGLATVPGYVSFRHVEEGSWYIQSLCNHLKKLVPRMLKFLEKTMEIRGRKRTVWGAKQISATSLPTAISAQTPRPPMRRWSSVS
T4 sequence (P55210 24-198 limits assumed): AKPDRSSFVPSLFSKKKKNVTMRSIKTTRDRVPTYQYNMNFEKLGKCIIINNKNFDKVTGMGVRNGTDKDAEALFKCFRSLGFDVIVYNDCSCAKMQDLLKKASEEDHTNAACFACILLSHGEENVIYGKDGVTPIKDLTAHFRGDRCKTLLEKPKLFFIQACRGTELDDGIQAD
T4 sequence (P55210 207-303 limits assumed): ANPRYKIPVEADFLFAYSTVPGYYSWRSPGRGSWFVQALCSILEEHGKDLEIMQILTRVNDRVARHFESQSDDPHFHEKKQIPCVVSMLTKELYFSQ
T3 sequence (P55212 24-293): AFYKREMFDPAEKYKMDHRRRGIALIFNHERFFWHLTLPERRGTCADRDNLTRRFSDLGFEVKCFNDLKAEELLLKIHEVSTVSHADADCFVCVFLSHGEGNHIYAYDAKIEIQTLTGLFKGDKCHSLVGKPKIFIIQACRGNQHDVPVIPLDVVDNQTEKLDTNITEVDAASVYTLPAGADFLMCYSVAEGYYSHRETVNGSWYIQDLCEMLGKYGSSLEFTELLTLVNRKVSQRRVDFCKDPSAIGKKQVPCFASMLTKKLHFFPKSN

`CCC(C(=O)NC(CC(=O)O)C(=O)COc1c(F)c(F)cc(F)c1F)n1cccc(NC(=O)OC)c1=O` (stereo not shown) [VX-166]: the “plasma endotoxin level vs vehicle CLP” value in experiment [1] is listed as “reduced plasma endotoxin levels; also recorded: reduced the level of endotoxin”. The concentration for half-maximal inhibition (IC50) in experiment [2] (Homo sapiens, PBMC, 18 h, n = 4, read-out: IC50 ± SD, inhibition of IL-1β release) was under 500 nM; in experiment [2] (LPS-treated human PBMC, 18 hours, n = 4, read-out: IC50 ± SD, inhibition of IL-1β release), 260 ± 120 nM. Also, the kinact/KI on caspase-9 worked out at 131000 ± 21000 M⁻¹ s⁻¹; on caspase-10, 49000 ± 3800 M⁻¹ s⁻¹; on caspase-6, 77000 ± 3000 M⁻¹ s⁻¹; on caspase-7 it was 526000 ± 1500 M⁻¹ s⁻¹.
